Reference: publication PMC8333425, “Discovery of a dual Ras and ARF6 inhibitor from a GPCR endocytosis screen” (Nature Communications, 2021)

Assays:
Assay in all cases: KINOMEscan kinase binding assay
[1] = biological target: T1, 384 kinases from the human genome (Homo sapiens, UniProt Q8N4C8); conditions: kinase MINK (Entrez MINK1)
T1 construct: purchased Eurofin/DiscoverX
How it was run: (§1)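 Competition binding (KINOMEscan) across 384 human kinases with compound at 10 µM. Ligand binding was expressed relative to DMSO (100%) as the average of duplicates from one experiment. S(10) selectivity score was derived.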

[2] = biological target: T2, 384 kinases from the human genome (Homo sapiens, UniProt O95382); conditions: kinase ASK2 (Entrez MAP3K6)
T2 construct: purchased Eurofin/DiscoverX
How it was run: as §1

[3] = biological target: T3, 384 kinases from the human genome (Homo sapiens, UniProt Q92772); conditions: kinase CDKL2 (Entrez CDKL2)
T3 construct: purchased Eurofin/DiscoverX
T3 sequence (Q92772 whole entry): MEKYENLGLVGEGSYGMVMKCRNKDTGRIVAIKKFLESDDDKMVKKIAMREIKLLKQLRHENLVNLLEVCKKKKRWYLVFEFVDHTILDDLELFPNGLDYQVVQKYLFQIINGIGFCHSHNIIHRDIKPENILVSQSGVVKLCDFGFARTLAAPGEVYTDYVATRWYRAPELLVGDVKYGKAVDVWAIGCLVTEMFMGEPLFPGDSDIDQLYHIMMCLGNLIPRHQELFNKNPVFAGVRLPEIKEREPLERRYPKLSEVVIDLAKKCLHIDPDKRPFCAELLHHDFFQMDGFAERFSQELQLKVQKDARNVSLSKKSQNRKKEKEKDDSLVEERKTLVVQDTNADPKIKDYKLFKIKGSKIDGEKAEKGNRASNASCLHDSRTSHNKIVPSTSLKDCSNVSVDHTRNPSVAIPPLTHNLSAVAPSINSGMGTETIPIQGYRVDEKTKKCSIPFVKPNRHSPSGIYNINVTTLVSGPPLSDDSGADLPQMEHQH
How it was run: as §1

[4] = biological target: T4, 384 kinases from the human genome (Homo sapiens, UniProt O76039); conditions: kinase CDKL5 (Entrez CDKL5)
T4 construct: purchased Eurofin/DiscoverX
How it was run: as §1

[5] = biological target: T5, 384 kinases from the human genome (Homo sapiens, UniProt P45985); conditions: kinase MEK4 (Entrez MAP2K4)
T5 construct: purchased Eurofin/DiscoverX
T5 sequence (P45985 whole entry): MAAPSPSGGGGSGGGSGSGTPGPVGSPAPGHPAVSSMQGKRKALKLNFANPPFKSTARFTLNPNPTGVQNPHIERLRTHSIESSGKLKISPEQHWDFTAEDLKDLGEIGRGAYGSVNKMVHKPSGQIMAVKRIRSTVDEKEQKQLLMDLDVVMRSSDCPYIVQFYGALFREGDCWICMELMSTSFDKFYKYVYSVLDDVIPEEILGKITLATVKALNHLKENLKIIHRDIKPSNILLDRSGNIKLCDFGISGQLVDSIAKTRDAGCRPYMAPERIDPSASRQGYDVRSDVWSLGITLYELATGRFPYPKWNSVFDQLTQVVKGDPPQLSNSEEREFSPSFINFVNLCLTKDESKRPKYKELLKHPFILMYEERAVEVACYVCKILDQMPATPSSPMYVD
How it was run: as §1

[6] = biological target: T6, 384 kinases from the human genome (Homo sapiens, UniProt Q14164); conditions: kinase IKK-epsilon (Entrez IKBKE)
T6 construct: purchased Eurofin/DiscoverX
T6 sequence (Q14164 whole entry): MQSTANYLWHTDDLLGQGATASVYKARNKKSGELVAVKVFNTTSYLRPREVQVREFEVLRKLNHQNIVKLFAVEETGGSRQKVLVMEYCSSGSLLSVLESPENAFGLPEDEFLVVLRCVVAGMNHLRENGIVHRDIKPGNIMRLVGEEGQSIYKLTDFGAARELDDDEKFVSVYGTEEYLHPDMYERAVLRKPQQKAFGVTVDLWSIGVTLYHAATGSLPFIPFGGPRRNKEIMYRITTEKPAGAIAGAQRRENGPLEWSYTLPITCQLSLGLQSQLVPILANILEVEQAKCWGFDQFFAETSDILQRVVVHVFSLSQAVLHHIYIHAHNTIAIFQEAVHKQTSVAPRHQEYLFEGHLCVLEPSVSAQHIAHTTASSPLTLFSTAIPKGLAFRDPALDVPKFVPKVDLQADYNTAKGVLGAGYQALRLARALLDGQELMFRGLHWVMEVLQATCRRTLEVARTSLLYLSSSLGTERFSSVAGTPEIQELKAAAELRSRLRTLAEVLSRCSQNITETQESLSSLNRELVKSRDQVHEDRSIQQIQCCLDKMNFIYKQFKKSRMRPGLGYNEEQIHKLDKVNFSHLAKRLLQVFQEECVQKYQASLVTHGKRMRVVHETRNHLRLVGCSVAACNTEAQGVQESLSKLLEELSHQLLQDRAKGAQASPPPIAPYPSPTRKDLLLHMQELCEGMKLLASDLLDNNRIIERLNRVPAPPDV
How it was run: as §1

[7] = biological target: T7, 384 kinases from the human genome (Homo sapiens, UniProt Q9P286); conditions: kinase PAK7 (Entrez PAK7)
T7 construct: purchased Eurofin/DiscoverX
How it was run: as §1

[8] = biological target: T8, 384 kinases from the human genome (Homo sapiens, UniProt Q04759); conditions: kinase PRKCQ (Entrez PRKCQ)
T8 construct: purchased Eurofin/DiscoverX
T8 sequence (Q04759 whole entry): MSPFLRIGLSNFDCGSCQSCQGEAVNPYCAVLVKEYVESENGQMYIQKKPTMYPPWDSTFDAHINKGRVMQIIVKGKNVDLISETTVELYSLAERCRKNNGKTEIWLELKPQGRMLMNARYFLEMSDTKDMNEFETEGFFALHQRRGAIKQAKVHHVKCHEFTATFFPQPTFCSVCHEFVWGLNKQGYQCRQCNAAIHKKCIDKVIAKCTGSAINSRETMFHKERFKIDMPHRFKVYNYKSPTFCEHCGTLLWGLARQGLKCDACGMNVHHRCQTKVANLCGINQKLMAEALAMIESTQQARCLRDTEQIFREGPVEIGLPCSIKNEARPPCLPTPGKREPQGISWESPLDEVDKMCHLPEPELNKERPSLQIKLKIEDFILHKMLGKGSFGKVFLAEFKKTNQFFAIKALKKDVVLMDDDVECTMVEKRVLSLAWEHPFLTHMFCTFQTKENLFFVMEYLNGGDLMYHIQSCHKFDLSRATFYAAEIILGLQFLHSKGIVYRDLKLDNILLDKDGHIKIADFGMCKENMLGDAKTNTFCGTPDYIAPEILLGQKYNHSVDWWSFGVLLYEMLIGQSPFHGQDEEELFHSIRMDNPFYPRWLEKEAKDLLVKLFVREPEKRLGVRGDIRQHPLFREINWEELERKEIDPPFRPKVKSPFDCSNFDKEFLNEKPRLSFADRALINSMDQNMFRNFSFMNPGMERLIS
How it was run: as §1

[9] = biological target: T9, 384 kinases from the human genome (Homo sapiens, UniProt Q96BR1); conditions: kinase SGK3 (Entrez SGK3)
T9 construct: purchased Eurofin/DiscoverX
T9 sequence (Q96BR1 whole entry): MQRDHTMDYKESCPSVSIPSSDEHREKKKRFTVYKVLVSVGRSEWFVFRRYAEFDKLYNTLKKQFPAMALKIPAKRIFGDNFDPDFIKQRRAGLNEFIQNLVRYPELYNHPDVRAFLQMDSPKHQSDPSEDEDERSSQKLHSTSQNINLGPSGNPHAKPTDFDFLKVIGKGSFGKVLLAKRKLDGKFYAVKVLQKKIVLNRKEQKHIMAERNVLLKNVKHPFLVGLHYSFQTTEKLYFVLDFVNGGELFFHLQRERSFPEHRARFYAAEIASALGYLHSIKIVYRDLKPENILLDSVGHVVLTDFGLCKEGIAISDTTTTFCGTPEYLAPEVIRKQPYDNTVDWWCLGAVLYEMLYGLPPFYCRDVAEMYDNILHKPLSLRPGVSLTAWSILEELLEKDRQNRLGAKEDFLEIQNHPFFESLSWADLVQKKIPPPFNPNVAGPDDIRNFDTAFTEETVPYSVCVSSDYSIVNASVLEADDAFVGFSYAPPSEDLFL
How it was run: as §1

[10] = biological target: T10, 384 kinases from the human genome (Homo sapiens, UniProt Q14289); conditions: kinase PYK2 (Entrez PTK2B)
T10 construct: purchased Eurofin/DiscoverX
How it was run: as §1

[11] = biological target: T11, 384 kinases from the human genome (Homo sapiens, UniProt Q9P289); conditions: kinase MST4 (Entrez MST4)
T11 construct: purchased Eurofin/DiscoverX
T11 sequence (Q9P289 whole entry): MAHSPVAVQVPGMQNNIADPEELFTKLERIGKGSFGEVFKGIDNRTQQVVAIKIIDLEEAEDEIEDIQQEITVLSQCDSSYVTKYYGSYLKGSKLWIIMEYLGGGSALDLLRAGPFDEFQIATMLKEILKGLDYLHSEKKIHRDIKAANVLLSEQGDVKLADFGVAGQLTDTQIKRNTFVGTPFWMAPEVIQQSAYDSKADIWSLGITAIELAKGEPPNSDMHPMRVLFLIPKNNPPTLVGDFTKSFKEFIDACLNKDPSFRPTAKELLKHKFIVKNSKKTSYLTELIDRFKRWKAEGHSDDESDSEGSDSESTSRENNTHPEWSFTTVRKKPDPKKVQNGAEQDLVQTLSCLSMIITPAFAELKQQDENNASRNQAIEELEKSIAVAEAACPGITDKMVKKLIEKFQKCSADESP
How it was run: as §1

[12] = biological target: T12, 384 kinases from the human genome (Homo sapiens, UniProt P29376); conditions: kinase LTK (Entrez LTK)
T12 construct: purchased Eurofin/DiscoverX
How it was run: as §1

[13] = biological target: T13, 384 kinases from the human genome (Homo sapiens, UniProt P50613); conditions: kinase CDK7 (Entrez CDK7)
T13 construct: purchased Eurofin/DiscoverX
T13 sequence (P50613 whole entry): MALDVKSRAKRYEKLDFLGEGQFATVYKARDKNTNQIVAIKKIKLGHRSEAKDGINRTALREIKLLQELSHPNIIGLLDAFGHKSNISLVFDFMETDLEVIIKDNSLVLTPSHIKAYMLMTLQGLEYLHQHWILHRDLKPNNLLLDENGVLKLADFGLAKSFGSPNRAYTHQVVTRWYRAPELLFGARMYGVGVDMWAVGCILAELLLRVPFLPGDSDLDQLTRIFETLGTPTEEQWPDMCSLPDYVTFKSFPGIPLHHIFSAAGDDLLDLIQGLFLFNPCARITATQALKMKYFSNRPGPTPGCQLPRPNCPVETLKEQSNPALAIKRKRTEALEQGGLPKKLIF
How it was run: as §1

[14] = biological target: T14, 384 kinases from the human genome (Homo sapiens, UniProt P53355); conditions: kinase DAPK1 (Entrez DAPK1)
T14 construct: purchased Eurofin/DiscoverX
How it was run: as §1

[15] = biological target: T15, 384 kinases from the human genome (Homo sapiens, UniProt Q9UEW8); conditions: kinase STK39 (Entrez STK39)
T15 construct: purchased Eurofin/DiscoverX
How it was run: as §1

[16] = biological target: T16, 384 kinases from the human genome (Homo sapiens, UniProt Q9NY57); conditions: kinase YANK2 (Entrez STK32B)
T16 construct: purchased Eurofin/DiscoverX
T16 sequence (Q9NY57 whole entry): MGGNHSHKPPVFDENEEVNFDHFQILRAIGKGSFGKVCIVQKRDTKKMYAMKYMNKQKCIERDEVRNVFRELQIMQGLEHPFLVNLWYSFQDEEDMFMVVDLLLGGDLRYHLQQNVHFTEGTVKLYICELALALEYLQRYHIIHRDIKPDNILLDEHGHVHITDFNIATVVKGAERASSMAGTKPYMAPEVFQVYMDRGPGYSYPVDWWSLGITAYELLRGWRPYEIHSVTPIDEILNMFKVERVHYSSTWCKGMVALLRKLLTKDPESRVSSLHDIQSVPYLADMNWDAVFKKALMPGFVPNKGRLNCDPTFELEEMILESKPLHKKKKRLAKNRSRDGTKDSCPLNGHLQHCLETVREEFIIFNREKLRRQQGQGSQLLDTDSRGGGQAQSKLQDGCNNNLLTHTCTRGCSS
How it was run: as §1

[17] = biological target: T17, 384 kinases from the human genome (Homo sapiens, UniProt Q04912); conditions: kinase MST1R (Entrez MST1R)
T17 construct: purchased Eurofin/DiscoverX
How it was run: as §1

[18] = biological target: T18, 384 kinases from the human genome (Homo sapiens, UniProt Q9C098); conditions: kinase DCAMKL3 (Entrez DCLK3)
T18 construct: purchased Eurofin/DiscoverX
How it was run: as §1

[19] = biological target: T19, 384 kinases from the human genome (Homo sapiens, UniProt P29323); conditions: kinase EPHB2 (Entrez EPHB2)
T19 construct: purchased Eurofin/DiscoverX
How it was run: as §1

[20] = biological target: T20, 384 kinases from the human genome (Homo sapiens, UniProt P54762); conditions: kinase EPHB1 (Entrez EPHB1)
T20 construct: purchased Eurofin/DiscoverX
How it was run: as §1

[21] = biological target: T21, 384 kinases from the human genome (Homo sapiens, UniProt Q13470); conditions: kinase TNK1 (Entrez TNK1)
T21 construct: purchased Eurofin/DiscoverX
T21 sequence (Q13470 whole entry): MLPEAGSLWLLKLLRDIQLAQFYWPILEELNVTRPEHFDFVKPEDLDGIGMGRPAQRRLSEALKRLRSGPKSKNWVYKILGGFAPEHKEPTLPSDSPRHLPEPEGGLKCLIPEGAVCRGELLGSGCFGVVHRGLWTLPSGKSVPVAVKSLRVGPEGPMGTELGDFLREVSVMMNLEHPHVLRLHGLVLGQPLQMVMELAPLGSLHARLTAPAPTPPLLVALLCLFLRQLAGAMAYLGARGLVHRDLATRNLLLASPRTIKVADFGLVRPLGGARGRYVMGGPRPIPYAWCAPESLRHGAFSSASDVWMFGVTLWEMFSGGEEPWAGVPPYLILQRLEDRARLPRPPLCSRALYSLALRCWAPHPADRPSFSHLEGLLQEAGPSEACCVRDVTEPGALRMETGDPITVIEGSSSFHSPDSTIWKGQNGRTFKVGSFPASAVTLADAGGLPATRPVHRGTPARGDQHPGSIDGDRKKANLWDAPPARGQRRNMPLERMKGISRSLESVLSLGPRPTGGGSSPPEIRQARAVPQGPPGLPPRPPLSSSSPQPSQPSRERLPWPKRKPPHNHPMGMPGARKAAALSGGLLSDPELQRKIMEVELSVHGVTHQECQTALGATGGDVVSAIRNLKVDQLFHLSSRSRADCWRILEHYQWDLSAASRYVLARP
How it was run: as §1

[22] = biological target: T22, 384 kinases from the human genome (Homo sapiens, UniProt Q9BYP7); conditions: kinase WNK3 (Entrez WNK3)
T22 construct: purchased Eurofin/DiscoverX
How it was run: as §1

[23] = biological target: T23, 384 kinases from the human genome (Homo sapiens, UniProt Q02763); conditions: kinase TIE2 (Entrez TEK)
T23 construct: purchased Eurofin/DiscoverX
How it was run: as §1

[24] = biological target: T24, 384 kinases from the human genome (Homo sapiens, UniProt O14733); conditions: kinase MKK7 (Entrez MAP2K7)
T24 construct: purchased Eurofin/DiscoverX
How it was run: as §1

[25] = biological target: T25, 384 kinases from the human genome (Homo sapiens, UniProt P53671); conditions: kinase LIMK2 (Entrez LIMK2)
T25 construct: purchased Eurofin/DiscoverX
How it was run: as §1

[26] = biological target: T26, 384 kinases from the human genome (Homo sapiens, UniProt P42345); conditions: kinase MTOR (Entrez MTOR)
T26 construct: purchased Eurofin/DiscoverX
How it was run: as §1

[27] = biological target: T27, 384 kinases from the human genome (Homo sapiens, UniProt P46734); conditions: kinase MEK3 (Entrez MAP2K3)
T27 construct: purchased Eurofin/DiscoverX
T27 sequence (P46734 whole entry): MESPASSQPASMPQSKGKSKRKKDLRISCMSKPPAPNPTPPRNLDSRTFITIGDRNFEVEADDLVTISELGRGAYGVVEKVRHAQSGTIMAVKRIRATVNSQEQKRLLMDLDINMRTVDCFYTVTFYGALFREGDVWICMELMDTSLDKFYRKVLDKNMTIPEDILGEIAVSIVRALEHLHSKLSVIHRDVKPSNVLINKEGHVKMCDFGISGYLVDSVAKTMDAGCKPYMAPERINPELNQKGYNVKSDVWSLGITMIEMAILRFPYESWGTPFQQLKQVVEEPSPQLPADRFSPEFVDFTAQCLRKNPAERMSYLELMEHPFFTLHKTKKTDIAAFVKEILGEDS
How it was run: as §1

## CC(C)C(=O)N1CCN(c2ccc(NC(=O)c3cc4ccccc4o3)cc2Cl)CC1 [Compound 21]
[1]
  Percent Control: 63%
[2]
  Percent Control: 100%
[3]
  Percent Control: 100%
[4]
  Percent Control: 89%
[5]
  Percent Control: 93%
[6]
  Percent Control: 100%
[7]
  Percent Control: 85%
[8]
  Percent Control: 93%
[9]
  Percent Control: 91%
[10]
  Percent Control: 96%
[11]
  Percent Control: 100%
[12]
  Percent Control: 90%
[13]
  Percent Control: 83%
[14]
  Percent Control: 90%
[15]
  Percent Control: 100%
[16]
  Percent Control: 98%
[17]
  Percent Control: 91%
[18]
  Percent Control: 97%
[19]
  Percent Control: 94%
[20]
  Percent Control: 94%
[21]
  Percent Control: 75%
[22]
  Percent Control: 90%
[23]
  Percent Control: 88%
[24]
  Percent Control: 93%
[25]
  Percent Control: 90%
[26]
  Percent Control: 65%
[27]
  Percent Control: 76%
